Assay results reported in patent publication US20040171594A1, “Use of bis-acid(5-androsten-17-one-3beta-hydroxyl)diester for manufacture pharmaceuticals” (priority 2001, published 2004).
Marks after values point to notes of the source that are not given here.

Experiments:
[1] = tested on: arrhythmia of rats induced by Aconitine; experiment: Arrhythmia of rats induced by Aconitine; assay type: in vivo, SD rats; conditions: {}
Procedure: Male SD rats, weighing (218.3±20.0) g, were anaesthetized with urethane 1.2 g/kg body weight by abdominal injection, continuously monitored by II lead electrocardiogram (ECG) by MS302 Biological Signal Record and Analysis System. After ten minutes of being administered drug or 0.5% CMC-Na through sublingual vein, rats were injected with Aconitine in external jugular vein at 2.5 μg/min speed, recorded the dose at appearance time of ventricular premature beat (VP), ventricular tachycardia (VT), ventricular fibrillation (VF) and cardiac arrest (CA), respectively. And t test was performed. […] The effect of compounds Ca Do E at 0.5 mg/kg dose were remarkably better than that of Prasterone and Arniodarone.

[2] = tested on: arrhythmia of guinea pigs induced by Ouabain; experiment: Arrhythmia of guinea pigs induced by Ouabain; assay type: in vivo; conditions: n=8
Procedure: Chose 40 male guinea pigs, weighing (288.8±38.3) g, randomly divided into six groups, anaesthetized with urethane 1.2 g/kg by abdominal injection. Ten minutes after administered drug or 0.5% CMC-Na, the guinea pigs were injected Ouabain into external jugular vein at 3 μg/min speed, recorded ECG respectively, measured the dose at appearance time of VP, VT, VF and CA, and performed t test.

[3] = tested on: arrhythmia of rats induced by BaCl2; experiment: Arrhythmia of rats induced by BaCl2; assay type: in vivo, SD rats; conditions: BaCl2 4 mg/kg, drug 3 mg/kg into vein, within 60 min, n=10
Procedure: 50 male SD rats, weighing (236.7±13.7)g, were anaesthetized with 10% chloral hadrate 0.3 g/kg intraperitoneally, recorded ECG with intubating of external jugular vein administering drug. As soon as injected with BaCl2 4 mg/kg, rats usually emerged VP and VT quickly and developed to be the steady and typical double-aspect arrhythmia. After immediately injected with drug or 0.5% CMC-Na into vein, recorded the time of recovering and maintaining sinus rhythm within 60 min as standard, and compared the function between five groups. […] Time of maintaining sinus rhythm was longer and acted more quickly than that of Amiodarone group.

[4] = tested on: myocardium injury model of rats induced by ISO; experiment: Myocardium injury (myocardial ischemia) model of rats induced by ISO; assay type: in vivo, SD rats; conditions: drug 0.76 mg/kg, n=8; for Σ ST: rats, ISO s.c.
Procedure: SD rats were measured ECG by chest leads before experiment, abandoned those of abnormal or arrhythmia at T wave, ST sect. […] They were divided into four groups according to Table 4, eight rats in each group. As dose of Table 4, tested compounds or 0.5% CMC-Na solution with same volume were administered through duodenum for 30 minutes, rats were anaesthetized with aether. After ECG was recorded, Isoproterenol (ISO) was administered by subcutaneous injection from the back, recorded ECG again after 30 minutes. After specimen was intragastricly granted for 24 hours and 48 hours, every group was administered simples again and recorded ECG again in terms of the methods stated above. After 72 hours, bleeding from the ophthalmic venous plexus and separated blood serum through centrifugation. Killed the rats, scissor the tip of the heart to prepare 10% myocardial tissue homogenate with 4° C. physiological saline as standby.
Measured each rat's value of ST before first administering ISO. And after first, second and third subcutaneous injection for 30 minutes, calculated mv mean value of ΣST as guide line of myocardium injury and performed t test.
The changes of MDA LDH and CK in serum were measured with agent kits.
The changes of MDA, LDH and CK in serum and myocardial tissue homogenate were measured with agent kits.

[5] = tested on: cerebral ischemia-reperfusion injury of mice; experiment: Memory step-through test after cerebral ischemia-reperfusion injury; assay type: in vivo, NIH mice; conditions: 4.5 mg/kg intragastric once a day for 10 days, n=10
Procedure: After weighed, NIH mice were anaesthetized with Penbotarbital 60 mg/kg, then performed operation. Fixed at supine position, the skin in the middle of the deck was dissected about 7 mm. Separated common carotid artery of two sides of neck, surrounded with the thread of No “0”. Common carotid artery of two sides was chipped with artery clip for 2 minutes to induce cerebral ischemia. In the end of ischemia treatment, artery clip was loosed and blood perfusion was restored, rest for five minutes, repeated twice as that. After blocking blood flow of carotid, sutured incision. Recorded trail bloodletting, bloodletting quantity was no more than 10% of total blood quantity. After operation, […] were administered with proper physiological saline through intraperitoneal injection in order to supple capacity of blood. After pseudo operation group was anaesthetized, carotid of two sides was separated but blood flow was not blocked, without being bloodletting too.
In experiment appearance of body temperature lowering and righting reflex disappearing was as positive guide-line of ischemia, discarding those without typical guide line of ischemia. In the procedure of ischemia or after operation, some of animals would be dead. […] According to the dose of Table 7, animals were administered with medicine by intragastric intubation once a day, and continue administered drug for 10 days. After 10 days, memory test was performed.

[6] = tested on: thymus and spleen of mice; experiment: Indexes of thymus and spleen of mice injected with cyclophosphamide; assay type: in vivo, NIH mice; conditions: cyclophosphamide 60 mg/kg i.p., drug 10 mg/kg intragastric for 30 days, n=10
Procedure: Chose 90 healthy NIH mice, weighing (18˜22)g, equal amount of male and female. Every mouse was injected with cyclophos phamide (60 mg/kg, intraperitoneally). […] Administered specimen through intragastric intubation in terms of the dose in Table 8. Continuously administered orally specimen for 30 days, all mice fasted on the 30th day, but were supplied with water. On the 31th day, mice of every group were killed. Weighed their body, thymus and spleen, calculated index of thymus and spleen, compared the difference among each group.

[7] = tested on: osteoporosis model of rats induced by Retinoic acid; experiment: Osteoporosis model of rats induced by Retinoic acid; assay type: in vivo, SD rats; conditions: Retinoic acid 70 mg/kg, specimen orally 30 days (dose not given), right thighbone, n=8
Description: After continuously administering specimen for 30 days, killed rats and took right thighbone of rat.
Took same part tissue of right thighbone, routinely decalcified, enveloped with olefin, and dyed with HE. Observed with ordinary optics microscope, import all imagines into computer with A/D conversion of pickup camera, via dealing with image analysis software obtained index of guide line as follows: relative bone volume, indicating percentage that bone trabecula accounted for medullary cavity, 1.25×10×4 times; average width of bone trabecula, 1.25×10×10 times; amount of cell per area in bone trabecula, gathering same area image (640×480) of bone trabecula with image analysis software, calculating amount of bone cell in corresponding area, 1.25×10×40 times; Average length of bone cell lacuna, 1.25×10×40; Average width of bone cell lacuna, 1.25×10×40. The above five indexes of static state guide-line were all observed for ten eyeshots, calculating their average value.

[8] = tested on: acute renal failure of mice induced by endotoxin; experiment: Acute renal failure model induced by endotoxin; assay type: in vivo, NIH mice; conditions: drug 10 mg/kg i.p., endotoxin 0.06 g/kg, after five hours, n=10; for GSH-Px: mice kidney homogenate; for BUN / Cr: mice serum
Procedure: After five hours, blood of the mice was collected by removing eyes, assayed Blood Urea Nitrogen (BUN) and Creatinine (Cr) concentration of serum. One kidney of each […] was taken out and made 100 mL/L homogenate, assayed activity of Glutathione Peroxidase (GSH-Px) enzyme.

[9] = drug 3 mg/kg 10 min before Ouabain 3 μg/min
[10] = drug 1.5 mg/kg 10 min before Ouabain 3 μg/min
[11] = myocardial tissue homogenate of rats with ISO myocardium injury
[12] = serum of rats with ISO myocardium injury, after 72 hours

Compound | Activity of CK [4, 11] [U/L] | Activity of LDH [4, 11] [U/L] | MDA [4, 11] [nmol/g] | Σ ST ([4]; 30 min) [mv] | Σ ST ([4]; 24 h) [mv] | Σ ST ([4]; 48 h) [mv] | Σ ST ([4]; 72 h) [mv] | Activity of CK [4, 12] [U/L] | Activity of LDH [4, 12] [U/L] | MDA [4, 12] [nmol/mL] | Latency of dark cabin, Memory [5] [s] | Latency of dark cabin, Study [5] [s] | Number of error [5] [n] | Index of spleen [6] [mg/10 g body weight] | Index of thymus [6] [mg/10 g body weight] | Amount of cell per area in bone trabecula [7] | Average width of bone trabecula [7] [μm] | Relative bone volume [7] [%] | GSH-Px [8] [nU · L^−1] | BUN [8] | further results
CCCCc1oc2ccccc2c1C(=O)c1cc(I)c(OCCN(CC)CC)c(I)c1 [Amiodarone, reference compound] | – | – | – | – | – | – | – | – | – | – | – | – | – | – | – | – | – | – | – | – | Dose of Aconitine required to induce CA [1]: 0.176 ± 0.038 mg/kg; Dose of Aconitine required to induce VF [1]: 0.1412 ± 0.0282 mg/kg; Dose of Aconitine required to induce VP [1]: 0.09 ± 0.0257 mg/kg; Dose of Aconitine required to induce VT [1]: 0.1088 ± 0.0254 mg/kg; Dose of Oua at appearance of CA [2, 9]: 0.2836 ± 0.0439 mg/kg; Dose of Oua at appearance of VF [2, 9]: 0.2476 ± 0.0461 mg/kg; Dose of Oua at appearance of VP [2, 9]: 0.1184 ± 0.0335 mg/kg; Dose of Oua at appearance of VT [2, 9]: 0.175 ± 0.0411 mg/kg; time of maintaining sinus rhythm [3]: 40.156 ± 5.124 min; time of storing sinus rhythm [3]: 15.859 ± 5.126 min
C[C@]12CC[C@H](OC(=O)CCCCC(=O)O[C@H]3CC[C@@]4(C)C(=CC[C@@H]5[C@@H]4CC[C@]4(C)C(=O)CC[C@@H]54)C3)CC1=CC[C@@H]1[C@@H]2CC[C@]2(C)C(=O)CC[C@@H]12 [Compound F, adipic acid-(5-androsten-17-one-3β-ol)-diester] | 221.58 ± 45.58 | 157.39 ± 20.69 | 105.02 ± 10.84 | 0.47 ± 0.10 | 0.57 ± 0.15 | 0.61 ± 0.05 | 0.53 ± 0.08 | 252.17 ± 18.41 | 250.40 ± 31.30 | 24.16 ± 4.18 | 46.5 ± 13.8 | 28.7 ± 11.8 | 2.9 ± 1.1 | 75.24 ± 15.48 | 16.24 ± 3.31 | 26.31 ± 3.16 | 74.67 ± 3.56 | 37.14 ± 3.46 | 35.2 ± 12.8 | 377.1 ± 38.1*** 10 mg · L^−1 | Dose of Oua at appearance of CA [2, 10]: 0.212 ± 0.0406 mg/kg; Dose of Oua at appearance of VF [2, 10]: 0.1762 ± 0.0481 mg/kg; Dose of Oua at appearance of VP [2, 10]: 0.0874 ± 0.0213 mg/kg; Dose of Oua at appearance of VT [2, 10]: 0.1394 ± 0.0354 mg/kg; Cr [8]: 38.31 ± 9.69*** 10 mg · L^−1
CC12CCC3C(CC=C4CC(OC(=O)CCC(=O)OC5CCC6(C)C(=CCC7C8CCC(=O)C8(C)CCC76)C5)CCC43C)C1CCC2=O (stereo not drawn) [Compound D, succinic acid-(5-androsten-17-one-3β-ol)-diester] | 270.41 ± 34.31 | 292.27 ± 29.44 | 78.43 ± 7.51 | 0.42 ± 0.20 | 0.47 ± 0.13 | 0.42 ± 0.08 | 0.40 ± 0.10 | 229.27 ± 31.32 | 218.55 ± 37.35 | 18.15 ± 4.52 | 67.4 ± 19.7 | 37.3 ± 15.1 | 1.2 ± 1.0 | 103.47 ± 13.40 | 25.59 ± 3.70 | 20.70 ± 5.27 | 70.76 ± 8.56 | 41.55 ± 4.38 | 38.4 ± 15.0 | 295.5 ± 36.0*** 10 mg · L^−1 | Dose of Aconitine required to induce CA [1]: 0.204 ± 0.028 mg/kg; Dose of Aconitine required to induce VF [1]: 0.1864 ± 0.0302 mg/kg; Dose of Aconitine required to induce VP [1]: 0.1224 ± 0.0205 mg/kg; Dose of Aconitine required to induce VT [1]: 0.1378 ± 0.0244 mg/kg; Cr [8]: 29.31 ± 7.94*** 10 mg · L^−1
glycol-disulphonic acid-(5-androsten-17-one-3β-ol)-diester [Compound G] | 225.60 ± 31.81 | 152.22 ± 25.42 | 99.52 ± 13.15 | 0.51 ± 0.13 | 0.50 ± 0.14 | 0.67 ± 0.19 | 0.42 ± 0.07 | 248.20 ± 20.50 | 254.75 ± 30.81 | 20.54 ± 2.11 | 47.5 ± 15.7 | 29.5 ± 17.5 | 3.4 ± 1.6 | 80.22 ± 17.33 | 18.39 ± 3.24 | 25.84 ± 3.31 | 69.67 ± 3.15 | 34.37 ± 3.27 | 31.8 ± 12.3 | 412.2 ± 40.5*** 10 mg · L^−1 | Dose of Oua at appearance of CA [2, 10]: 0.228 ± 0.0398 mg/kg; Dose of Oua at appearance of VF [2, 10]: 0.1887 ± 0.0378 mg/kg; Dose of Oua at appearance of VP [2, 10]: 0.1109 ± 0.0203 mg/kg; Dose of Oua at appearance of VT [2, 10]: 0.1443 ± 0.0338 mg/kg; Cr [8]: 40.42 ± 10.94*** 10 mg · L^−1
